Converted amounts (≈) assume the structure as drawn.

Common to all, as to type: cell-based
The subject of experiment [1] is Salmonella enterica LT2. The experiment in a line: Microbroth dilution MIC. Particulars: for MIC: Salmonella enterica LT2. As for the experimental part:
(§1) Antimicrobial Assays. Susceptibility testing was performed using the microbroth dilution method in 96 round-well microtiter plates following the general guidelines described by the Clinical and Laboratory Standards Institute (CLSI). Compounds were prepared as 50λ of stocks (10 mM) by dissolving in dI H2O. All bacterial strains were grown and assayed in Mueller-Hinton and M9 glucose media (with amendments added as required), and yeast strains in YMM. Overnight cultures were inoculated into 3 mL of fresh growth media following a 1:100 dilution. Upon mid-exponential growth (OD600 0.4-0.6), cultures were diluted to 5×10^6 CFU mL-1 (based on previously determined calibration curves) and used as inoculum into assay plates. Wells contained 100 μL of media with 5×10^5 CFU mL-1 of test organism, and serial ½-dilutions of the test compound (starting with 200 μM). E. coli WM6242 was assayed with induction of the phosphonic acid uptake system including 1 mM IPTG in assay wells. Controls wells contained 200 µM kanamycin (for bacteria) or nystatin (for yeasts), no compound addition (vehicle only), and no cell addition (added media instead). Microtiter plates were incubated with shaking (220 rpm) at their respective growth temperatures. Culture densities (OD600) were recorded using a Bio-Rad xMark microplate spectrophotometer after 16 hours for all strains except Bacillus, which were after 24 hours. Assays were performed in triplicated on separate independent days. […] Minimum inhibitory concentrations are from triplicate assays performed on separate days.
(§2) Antimicrobial Assays. […] Susceptibility testing was performed using the microbroth dilution method in 96 round-well microtiter plates as previously described [A20]. Compounds were prepared as 50× of stocks (10 Mm) by dissolving in Di H2O. All bacterial strains were grown and assayed M9 glucose media (with amendments added as required), and yeast strains in YMM. Controls wells contained 200 µM kanamycin (for bacteria) or nystatin (for yeasts), no compound addition (vehicle only), and no cell addition (added media instead). Culture densities (OD600) were recorded using a Bio-Rad xMark microplate spectrophotometer after 16 hours for all strains except bacilli, which were recorded after 24 hours. […] MICs values are from triplicate assays performed on separate days. Disk diffusion assays were used to assess antimicrobial activity of the purified compounds against filamentous fungi and against Mycobacterium smegmatis [A20].
For orientation: Dilution methods test growth across graded concentrations, often in twofold steps.

Experiment [2] has as its system Pseudomonas aeruginosa K. The experiment in a line: Microbroth dilution MIC. To be noted: for MIC: Pseudomonas aeruginosa K. The procedure:
as §1, §2

Experiment [3] deals with Serratia marcescens NRRL B-2544. The experiment in a line: Microbroth dilution MIC. To be noted: for MIC: Serratia marcescens NRRL B-2544. The procedure: as §1, §2
For experiment [4], the system named is Escherichia coli K12. The experiment in a line: Microbroth dilution MIC. Particulars: for MIC: Escherichia coli K12. As for the experimental part:
as §1, §2

Experiment [5] concerns Curtobacterium sp. MMLR14_014. The experiment in a line: Antibacterial susceptibility testing. To be noted: strains of Curtobacterium commonly present in soils and on plants. As for the experimental part:
as §2

The subject of experiment [6] is Escherichia coli WM6242 (Pn Uptake Induced). Nature of the experiment: Microbroth dilution MIC, phosphonate uptake induced with 1 mM IPTG. As for the experimental part: (§3) Antimicrobial Assays. […] Compounds were prepared as 50λ of stocks (10 mM) by dissolving in dI H2O. […] Overnight cultures were inoculated into 3 mL of fresh growth media following a 1:100 dilution. Upon mid-exponential growth (OD600 0.4-0.6), cultures were diluted to 5×10^6 CFU mL-1 (based on previously determined calibration curves) and used as inoculum into assay plates. Wells contained 100 μL of media with 5×10^5 CFU mL-1 of test organism, and serial ½-dilutions of the test compound (starting with 200 μM). E. coli WM6242 was assayed with induction of the phosphonic acid uptake system including 1 mM IPTG in assay wells. […] Microtiter plates were incubated with shaking (220 rpm) at their respective growth temperatures. […] Assays were performed in triplicated on separate independent days. […] Minimum inhibitory concentrations are from triplicate assays performed on separate days.

Experiment [7] has as its system Pseudomonas syringae B278a. Nature of the experiment: microbe, parasite or virus in culture. To be noted: Table 13, minimal media. The procedure: as §2
For experiment [8], the system named is Escherichia coli WM6242. The experiment in a line: Microbroth dilution MIC. Particulars: Table 2 (MIC90), triplicate. The procedure:
as §3

In experiment [9] the test system is Staphylococcus aureus ATCC 23055. Nature of the experiment: Microbroth dilution MIC. As for the experimental part: as §1, §2
For experiment [10], the system named is Erwinia rhapontici KSJ3948. The experiment in a line: Microbroth dilution MIC. As for the experimental part:
as §1, §2

Experiment [11] deals with Pseudomonas aeruginosa PA01. The experiment in a line: Microbroth dilution MIC. The procedure:
as §1, §2

Experiment [12] relates to Citrobacter freundii ATCC 8090. Nature of the experiment: Microbroth dilution MIC. As for the experimental part: as §1, §2
Experiment [13] relates to Pantoea ananatis LMG 20103. The experiment in a line: Microbroth dilution MIC. The procedure: as §1, §2
For experiment [14], the system named is Bacillus megaterium ATCC 19213. Nature of the experiment: Microbroth dilution MIC. As for the experimental part: as §1, §2
For experiment [15], the system named is Rhodococcus jostii RHA1. The experiment in a line: Microbroth dilution MIC. As for the experimental part: as §1, §2
Experiment [16] has as its system Acinetobacter calcoaceticus ATCC 23055. Nature of the experiment: Microbroth dilution MIC. The procedure:
as §1, §2

The subject of experiment [17] is Bacillus subtilis ATCC 6633. The experiment in a line: Microbroth dilution MIC. As for the experimental part: as §1, §2
The test system of experiment [18] is Enterobacter aerogenes CDC 1998-68. The experiment in a line: Microbroth dilution MIC. The procedure: as §1, §2
Experiment [19] deals with Acidovorax citrulli ATCC 29625. The experiment in a line: Microbroth dilution MIC. Particulars: Paracidovorax citrulli, ATCC29625, Table 13, minimal media. As for the experimental part: as §2
In experiment [20] the test system is Pseudomonas fluorescens Pf5. The experiment in a line: Microbroth dilution MIC. To be noted: Table 13, minimal media. The procedure: as §2
Experiment [21] concerns Pseudomonas syringae pv. Tomato Max 14. Nature of the experiment: Microbroth dilution MIC. Particulars: Table 13, minimal media. As for the experimental part: as §2
Experiment [22] deals with Pseudomonas medocina Palleroni ATCC 25411. Nature of the experiment: Microbroth dilution MIC. Particulars: ATCC25411, Table 13, minimal media. As for the experimental part:
as §2

Experiment [23] relates to Acidovroax delafieldii ATCC 17505. Nature of the experiment: Microbroth dilution MIC. To be noted: Table 13, minimal media. As for the experimental part: as §2
Experiment [24] concerns Acidovorax temperans ATCC 49665. The experiment in a line: Microbroth dilution MIC. To be noted: ATCC49665, Table 13, minimal media. The procedure: as §2
Experiment [25] deals with Acidovorax avenae ATCC 19860. Nature of the experiment: Microbroth dilution MIC. To be noted: Paracidovorax avenae, ATCC19860, Table 13, minimal media. As for the experimental part: as §2
The test system of experiment [26] is Acidovorax konjacii ATCC 33996. Nature of the experiment: Microbroth dilution MIC. To be noted: Table 13, minimal media. The procedure:
as §2

Experiment [27] has as its system Salmonella enterica ser. Livingstone 1236H. The experiment in a line: Microbroth dilution MIC. The procedure:
as §2

The subject of experiment [28] is Salmonella enterica ser. Tennessee E2007000304. Nature of the experiment: Microbroth dilution MIC. Particulars: Table 13, minimal media. The procedure: as §2
Experiment [29] concerns yeast, and filamentous fungi. The experiment in a line: Antifungal activity: microbroth dilution (yeasts) and disk diffusion (filamentous fungi). Particulars: panel of yeast and filamentous fungi (Table 12). The procedure:
Antimicrobial Assays. Susceptibility testing was performed using the microbroth dilution method in 96 round-well microtiter plates following the general guidelines described by the Clinical and Laboratory Standards Institute (CLSI). Compounds were prepared as 50λ of stocks (10 mM) by dissolving in dI H2O. All bacterial strains were grown and assayed in Mueller-Hinton and M9 glucose media (with amendments added as required), and yeast strains in YMM. Overnight cultures were inoculated into 3 mL of fresh growth media following a 1:100 dilution. Upon mid-exponential growth (OD600 0.4-0.6), cultures were diluted to 5×10^6 CFU mL-1 (based on previously determined calibration curves) and used as inoculum into assay plates. Wells contained 100 μL of media with 5×10^5 CFU mL-1 of test organism, and serial ½-dilutions of the test compound (starting with 200 μM). E. coli WM6242 was assayed with induction of the phosphonic acid uptake system including 1 mM IPTG in assay wells. […] Culture densities (OD600) were recorded using a Bio-Rad xMark microplate spectrophotometer after 16 hours for all strains except Bacillus, which were after 24 hours. […]
Antimicrobial Assays. […] Culture densities (OD600) were recorded using a Bio-Rad xMark microplate spectrophotometer after 16 hours for all strains except bacilli, which were recorded after 24 hours. […]

Setting [30] is: Table 2 (MIC90), microbroth dilution, triplicate.
[31] abbreviates: Table 13, minimal media, ≥90% growth inhibition.
Setting [32] is: ATCC23055, Table 2 (MIC90), microbroth dilution, triplicate.

In the case of `CC(N)C(=O)NC(C)C(=O)NC(CP(=O)(O)O)C(=O)O` (stereo not drawn) [Compound 3], the “inhibitory activity compared with phosphonoalamide A (previously measured)” value was “greater inhibitory activity” in experiment [1] (S. enterica LT2, i.e. lower MICs); “greater inhibitory activity” in [2] (P. aeuroginosa K, i.e. lower MICs); “greater inhibitory activity” in experiment [3] (S. marcescens B-2544, i.e. lower MICs); “greater inhibitory activity” in experiment [4] (E. coli K12, i.e. lower MICs). Moreover, the “inhibition (in words)” value in experiment [5] is recorded as “Neither compound inhibited”.
For the molecule `CC(N)C(=O)NC(CP(=O)(O)O)C(=O)O` (stereo not drawn) [Compound 2], the MIC in [6], in [7], in [8], in experiment [1] (setting [30]), in [1] (setting [31]) and in experiment [9] (setting [32]) was more than 200 µM each time. Further, the MIC in experiment [9] (Table 13, minimal media) was more than 200 µM; in [10] (KSJ3948, Table 2 (MIC90), Erwinia rhapontici KSJ, microbroth dilution, triplicate), more than 200 µM; in [10] (Table 13, Erwinia rhapontici KSJ3948, minimal media, ≥90% growth inhibition), more than 200 µM; in experiment [11] (setting [30]), more than 200 µM; in experiment [11] (Table 13, minimal media) it was more than 200 µM; in experiment [12] (ATCC8090, Table 2 (MIC90), microbroth dilution, triplicate), more than 200 µM. The MIC in [12] (setting [31]) was more than 200 µM; in experiment [2] (setting [30]), more than 200 µM; in experiment [2] (Table 13, minimal media), more than 200 µM; in experiment [13] (LMG20103, Table 2 (MIC90), microbroth dilution, triplicate), 100 µM (≈ 24 µg/mL); in experiment [13] (setting [31]), 100 µM (≈ 24 µg/mL); in experiment [14] (Priestia megaterium, ATCC19213, Table 2 (MIC90), microbroth dilution, triplicate) it was 12.5 µM (≈ 3 µg/mL). For the same molecule, the MIC in [14] (Table 13, minimal media) was 12.5 µM (≈ 3 µg/mL); in experiment [3] (NRRLB2544, Table 2 (MIC90), microbroth dilution, triplicate), more than 200 µM; in experiment [3] (Table 13, minimal media), more than 200 µM; in experiment [15] (setting [30]), more than 200 µM; in experiment [15] (Table 13, minimal media), more than 200 µM; in experiment [16] (setting [32]), more than 200 µM. Moreover, the MIC in [16] (Table 13, minimal media) is more than 200 µM; in experiment [4] (setting [30]), more than 200 µM; in [4] (setting [31]), more than 200 µM; in experiment [17] (ATCC6633, Table 2 (MIC90), microbroth dilution, triplicate), 200 µM (≈ 48 µg/mL); in experiment [17] (Table 13, minimal media) it was 200 µM (≈ 48 µg/mL); in experiment [18] (Klebsiella aerogenes, CDC199868, Table 2 (MIC90), microbroth dilution, triplicate) it was more than 200 µM. For the same molecule, the MIC in [18] (setting [31]), in experiment [19], in [20], in experiment [21], in [22] and in [23] was more than 200 µM each time. In addition, the MIC in experiment [24], in [25], in experiment [26], in [27] and in experiment [28] was more than 200 µM throughout. Moreover, in experiment [5], the “inhibition (in words)” value is “Neither compound inhibited”. Moreover, in experiment [29], the “antifungal activity (in words)” value is recorded as “neither compound exhibited antifungal activity”.

(Values after patent US20250325569A1, “COMPOSITIONS AND METHODS OF MAKING AND USE THEREOF” (Ohio State Innovation Foundation, priority 2022, published 2025).)
